# Source: patent US8802700B2 (Vertex Pharmaceuticals Incorporated, priority 2010, dated 2014)
# pEC50: −log10 of the molar value.
# Target: T1, ΔF508-CFTR (Homo sapiens, UniProt P13569, DEL508-508)
# T1 construct: expressed in transfected cells
# Assay: Membrane potential optical assay (FRET voltage-sensor dyes, VIPR), identification of potentiator compounds
# Type: cell-based
# Conditions: Table 3; assay not given
# From the text: The optical membrane potential assay utilized voltage-sensitive FRET sensors described by Gonzalez and Tsien (See Gonzalez, J. E. and R. Y. Tsien (1995) “Voltage sensing by fluorescence resonance energy transfer in single cells” Biophys J 69(4): 1272-80, and Gonzalez, J. E. and R. Y. Tsien (1997) “Improved indicators of cell membrane potential that use fluorescence resonance energy transfer” Chem Biol 4(4): 269-77) in combination with instrumentation for measuring fluorescence changes such as the Voltage/Ion Probe Reader (VIPR) (See […]. Oades, et al. (1999) “Cell-based assays and instrumentation for screening ion-channel targets” Drug Discov Today 4(9): 431-439). These voltage sensitive assays are based on the change in fluorescence resonant energy transfer (FRET) between the membrane-soluble, voltage-sensitive dye, DiSBAC2(3), and a fluorescent phospholipid, CC2-DMPE, which is attached to the outer leaflet of the plasma membrane and acts as a FRET donor. Changes in membrane potential (Vm) cause the negatively charged DiSBAC2(3) to redistribute across the plasma membrane and the amount of energy transfer from CC2-DMPE changes accordingly. The changes in fluorescence emission were monitored using VIPRTM II, which is an integrated liquid handler and fluorescent detector designed to conduct cell-based screens in 96- or 384-well microtiter plates. To identify potentiators of ΔF508-CFTR, a double-addition HTS assay format was developed. During the first addition, a Cl^--free medium with or without test compound was added to each well. […] (in mM) NaCl 160, KCl 4.5, CaCl2 2, MgCl2 1, HEPES 10, pH 7.4 with NaOH. • Chloride-free bath solution: Chloride salts in Bath Solution #1 are substituted with gluconate salts. • CC2-DMPE: Prepared as a 10 mM stock solution in DMSO and stored at -20° C. • DiSBAC2(3): Prepared as a 10 mM stock in DMSO and stored at -20° C. NIH3T3 mouse fibroblasts stably expressing ΔF508-CFTR are used for optical measurements of membrane potential. […] For all optical assays, the cells were seeded at 30,000/well in 384-well matrigel-coated plates and cultured for 2 hrs at 37° C. before culturing at 27° C. for 24 hrs. for the potentiator assay.
# T1 sequence (P13569 with tags, fused parts or gaps DEL508-508): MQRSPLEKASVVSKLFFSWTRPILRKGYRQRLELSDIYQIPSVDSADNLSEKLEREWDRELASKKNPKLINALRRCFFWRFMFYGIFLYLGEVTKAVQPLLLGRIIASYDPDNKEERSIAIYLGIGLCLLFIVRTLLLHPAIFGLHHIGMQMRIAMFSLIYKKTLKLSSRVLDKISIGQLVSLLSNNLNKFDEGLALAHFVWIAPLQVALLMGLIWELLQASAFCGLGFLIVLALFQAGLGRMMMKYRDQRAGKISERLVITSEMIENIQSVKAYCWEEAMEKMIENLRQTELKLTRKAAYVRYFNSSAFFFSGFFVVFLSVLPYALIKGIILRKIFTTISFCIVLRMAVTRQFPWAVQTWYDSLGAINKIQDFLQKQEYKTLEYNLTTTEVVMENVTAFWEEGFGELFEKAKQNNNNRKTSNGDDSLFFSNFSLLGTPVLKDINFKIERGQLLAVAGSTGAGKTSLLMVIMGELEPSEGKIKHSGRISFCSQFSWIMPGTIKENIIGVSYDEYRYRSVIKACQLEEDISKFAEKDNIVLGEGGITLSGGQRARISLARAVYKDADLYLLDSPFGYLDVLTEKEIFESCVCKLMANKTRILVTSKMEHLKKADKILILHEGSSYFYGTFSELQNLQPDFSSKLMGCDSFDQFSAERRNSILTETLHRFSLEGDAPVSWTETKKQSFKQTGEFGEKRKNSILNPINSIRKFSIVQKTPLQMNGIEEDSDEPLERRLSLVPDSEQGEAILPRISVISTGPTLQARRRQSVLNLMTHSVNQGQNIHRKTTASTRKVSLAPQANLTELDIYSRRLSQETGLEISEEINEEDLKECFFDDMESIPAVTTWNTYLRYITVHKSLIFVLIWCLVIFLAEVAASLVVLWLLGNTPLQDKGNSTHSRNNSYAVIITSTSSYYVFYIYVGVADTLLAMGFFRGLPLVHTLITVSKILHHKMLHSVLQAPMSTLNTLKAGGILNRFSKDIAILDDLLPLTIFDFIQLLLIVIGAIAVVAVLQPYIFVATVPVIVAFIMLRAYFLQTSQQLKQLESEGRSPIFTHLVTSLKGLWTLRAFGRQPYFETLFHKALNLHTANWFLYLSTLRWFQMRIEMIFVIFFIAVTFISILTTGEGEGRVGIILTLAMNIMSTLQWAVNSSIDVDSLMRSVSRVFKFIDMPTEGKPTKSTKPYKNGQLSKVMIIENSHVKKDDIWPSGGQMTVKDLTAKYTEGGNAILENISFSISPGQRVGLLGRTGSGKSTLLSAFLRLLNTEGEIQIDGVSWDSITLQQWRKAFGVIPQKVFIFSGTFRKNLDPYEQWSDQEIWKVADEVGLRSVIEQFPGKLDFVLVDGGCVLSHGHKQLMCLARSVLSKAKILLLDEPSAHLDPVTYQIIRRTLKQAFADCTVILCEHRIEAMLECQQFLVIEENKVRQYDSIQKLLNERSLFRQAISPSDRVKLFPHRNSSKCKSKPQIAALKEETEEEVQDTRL
row,pEC50,Compound
1,> 5.00,"C[C@@H]1CCCN1c1ccc(NC(=O)c2c[nH]c3ccccc3c2=O)c(C(F)(F)F)c1 [Compound 572, (R)-N-(4-(2-methylpyrrolidin-1-yl)-2-(trifluoromethyl)phenyl)-4-oxo-1,4-dihydroquinoline-3-carboxamide]"

# Same assay, conditions: Table 3; assay not given; read-out: % Activity (% Efficacy, relative efficacy)
row,Emax [%],Compound
1,> 100,"COc1cc2c(=O)c(C(=O)Nc3cc(O)c(C(C)(C)C)cc3C(C)(C)C)c[nH]c2cc1F [Compound 709, 7-fluoro-N-(5-hydroxy-2,4-ditert-butyl-phenyl)-6-methoxy-4-oxo-1H-quinoline-3-carboxamide]"
2,< 25,"Cc1cccc2c(=O)c(C(=O)Nc3cc(O)c(C(C)(C)C)cc3F)c[nH]c12 [Compound 625, N-(2-fluoro-5-hydroxy-4-tert-butyl-phenyl)-8-methyl-4-oxo-1H-quinoline-3-carboxamide]"
3,25 to 100,"Cc1ccc(C(F)(F)F)cc1NC(=O)c1c[nH]c2cccc(O)c2c1=O [Compound 676, 5-hydroxy-N-[2-methyl-5-(trifluoromethyl)phenyl]-4-oxo-1H-quinoline-3-carboxamide]"
4,25 to 100,"CC(C)(C)c1cc(F)c(NC(=O)c2c[nH]c3cc(C#N)ccc3c2=O)cc1O [Compound 677, 7-cyano-N-(2-fluoro-5-hydroxy-4-tert-butyl-phenyl)-4-oxo-1H-quinoline-3-carboxamide]"
5,25 to 100,"O=C(Nc1ccccc1-c1cccc(OC(F)(F)F)c1)c1c[nH]c2ccccc2c1=O [Compound 253, 4-oxo-N-[2-[3-(trifluoromethoxy)phenyl]phenyl]-1H-quinoline-3-carboxamide]"
6,25 to 100,"CC(C)(C)c1cc(C(F)(F)F)c(NC(=O)c2c[nH]c3cccc(O)c3c2=O)cc1O [Compound 487, 5-hydroxy-N-[5-hydroxy-4-tert-butyl-2-(trifluoromethyl)phenyl]-4-oxo-1H-quinoline-3-carboxamide]"
7,25 to 100,"CCC(C)c1c[nH]c2cc(NC(=O)c3c[nH]c4ccccc4c3=O)ccc12 (stereo not shown) [Compound 259, 4-oxo-N-(3-sec-butyl-1H-indol-6-yl)-1H-quinoline-3-carboxamide]"
8,< 25,"CSc1nc2ccccc2c(O)c1C(=O)Nc1ccc2cc[nH]c2c1 [Compound 374, 4-hydroxy-N-(1H-indol-6-yl)-2-methylsulfanyl-quinoline-3-carboxamide]"
9,25 to 100,"O=C(Nc1ccccc1-c1cc(F)ccc1F)c1c[nH]c2ccccc2c1=O [Compound 384, N-[2-(2,5-difluorophenyl)phenyl]-4-oxo-1H-quinoline-3-carboxamide]"
10,< 25,"O=C(Nc1ccc2nccnc2c1)c1c[nH]c2ccccc2c1=O [Compound 443, 4-oxo-N-quinoxalin-6-yl-1H-quinoline-3-carboxamide]"
11,> 100,"COc1ccc2[nH]cc(C(=O)Nc3cc4[nH]ccc4cc3C(C)(C)C)c(=O)c2c1 [Compound 533, 6-methoxy-4-oxo-N-(5-tert-butyl-1H-indol-6-yl)-1H-quinoline-3-carboxamide]"
12,25 to 100,"CN(C)CCS(=O)(=O)Nc1cc(NC(=O)c2c[nH]c3ccccc3c2=O)cc(C(F)(F)F)c1 [Compound 359, N-[3-(2-dimethylaminoethylsulfonylamino)-5-(trifluoromethyl)phenyl]-4-oxo-1H-quinoline-3-carboxamide]"
13,25 to 100,"CC(C)(C)c1ccc(NC(=O)c2c[nH]c3ccc(F)cc3c2=O)cc1O [Compound 490, 6-fluoro-N-(3-hydroxy-4-tert-butyl-phenyl)-4-oxo-1H-quinoline-3-carboxamide]"
14,25 to 100,"CC(C)(C)c1cc2cc[nH]c2cc1NC(=O)c1c[nH]c2cccc(F)c2c1=O [Compound 656, 5-fluoro-4-oxo-N-(5-tert-butyl-1H-indol-6-yl)-1H-quinoline-3-carboxamide]"
15,> 100,"CC(C)(C)c1cc(C(C)(C)C)c(NC(=O)c2c[nH]c3ccc(F)cc3c2=O)cc1O [Compound 103, 6-fluoro-N-(5-hydroxy-2,4-ditert-butyl-phenyl)-4-oxo-1H-quinoline-3-carboxamide]"
16,25 to 100,"CCOC(=O)NCC(C)(C)c1ccc(NC(=O)c2c[nH]c3ccccc3c2=O)cc1 [Compound 119, [2-methyl-2-[4-[(4-oxo-1H-quinolin-3-yl)carbonylamino]phenyl]-propyl]aminoformic acid ethyl ester]"
17,25 to 100,"CCc1cc(C(C)(C)C)c(O)cc1NC(=O)c1c[nH]c2ccc(F)cc2c1=O [Compound 649, N-(2-ethyl-5-hydroxy-4-tert-butyl-phenyl)-6-fluoro-4-oxo-1H-quinoline-3-carboxamide]"
18,25 to 100,"Nc1cc(NC(=O)c2c[nH]c3ccccc3c2=O)c(Cl)cc1Cl [Compound 242, N-(5-amino-2,4-dichloro-phenyl)-4-oxo-1H-quinoline-3-carboxamide]"

row,Emax [%],Compound
1,25 to 100,"COCCOC(=O)NCC(C)(C)c1ccc(NC(=O)c2c[nH]c3ccccc3c2=O)cc1 [Compound 28, [2-methyl-2-[4-[(4-oxo-1H-quinolin-3-yl)carbonylamino]phenyl]-propyl]aminoformic acid 2-methoxyethyl ester]"
2,< 25,"O=C(Nc1nc2ccccc2[nH]1)c1c[nH]c2ccccc2c1=O [Compound 216, N-(3H-benzoimidazol-2-yl)-4-oxo-1H-quinoline-3-carboxamide]"
3,25 to 100,"CCOC(=O)C(C)(C)c1ccc(NC(=O)c2c[nH]c3ccccc3c2=O)cc1 [Compound 420, 2-methyl-2-[4-[(4-oxo-1H-quinolin-3-yl)carbonylamino]phenyl]-propanoic acid ethyl ester]"
4,25 to 100,"Nc1nc2ccc(NC(=O)c3c[nH]c4ccccc4c3=O)cc2s1 [Compound 671, N-(2-aminobenzothiazol-6-yl)-4-oxo-1H-quinoline-3-carboxamide]"
5,25 to 100,"O=C(Nc1ccc2c(c1)NCCC2)c1c[nH]c2ccccc2c1=O [Compound 299, 4-Oxo-N-(1,2,3,4-tetrahydroquinolin-7-yl)-1H-quinoline-3-carboxamide]"
6,25 to 100,"O=C(Nc1ccc(C(F)(F)F)c(O)c1)c1c[nH]c2ccc(F)cc2c1=O [Compound 650, 6-fluoro-N-[3-hydroxy-4-(trifluoromethyl)phenyl]-4-oxo-1H-quinoline-3-carboxamide]"
7,25 to 100,"Cc1ccccc1Oc1ccccc1NC(=O)c1c[nH]c2ccccc2c1=O [Compound 20, N-[2-(2-methylphenoxy)phenyl]-4-oxo-1H-quinoline-3-carboxamide]"
8,25 to 100,"CCc1cc2cc[nH]c2cc1NC(=O)c1c[nH]c2ccccc2c1=O [Compound 351, N-(5-ethyl-1H-indol-6-yl)-4-oxo-1H-quinoline-3-carboxamide]"
9,25 to 100,"CCOC(=O)Cc1c[nH]c2cc(NC(=O)c3c[nH]c4ccccc4c3=O)ccc12 [Compound 207, 2-[6-[(4-oxo-1H-quinolin-3-yl)carbonylamino]-1H-indol-3-yl]acetic acid ethyl ester]"
10,25 to 100,"COC(=O)c1cccc(-c2cc(C(C)(C)C)c(O)cc2NC(=O)c2c[nH]c3ccccc3c2=O)c1 [Compound 231, 3-[4-hydroxy-2-[(4-oxo-1H-quinolin-3-yl)carbonylamino]-5-tert-butyl-phenyl]benzoic acid methyl ester]"
11,25 to 100,"C[C@@H]1CCCN1c1ccc(NC(=O)c2c[nH]c3ccccc3c2=O)c(C(F)(F)F)c1 [Compound 572, (R)-N-(4-(2-methylpyrrolidin-1-yl)-2-(trifluoromethyl)phenyl)-4-oxo-1,4-dihydroquinoline-3-carboxamide]"
12,< 25,"NC(=O)c1cccc(NC(=O)c2c[nH]c3ccccc3c2=O)c1 [Compound 179, N-(3-carbamoylphenyl)-4-oxo-1H-quinoline-3-carboxamide]"
13,25 to 100,"O=C(Nc1ccc2cc(C(F)(F)F)[nH]c2c1)c1c[nH]c2ccccc2c1=O [Compound 537, 4-oxo-N-[2-(trifluoromethyl)-1H-indol-6-yl]-1H-quinoline-3-carboxamide]"
14,25 to 100,"CN(C)c1ccc(-c2ccccc2NC(=O)c2c[nH]c3ccccc3c2=O)cc1 [Compound 12, N-[2-(4-dimethylaminophenyl)phenyl]-4-oxo-1H-quinoline-3-carboxamide]"
15,25 to 100,"CC(C)n1cc(C(=O)Nc2ccccc2C(C)(C)C)c(=O)c2ccccc21 [Compound 473, 1-isopropyl-4-oxo-N-(2-tert-butylphenyl)-1H-quinoline-3-carboxamide]"
16,< 25,"CC(=O)c1cccc(NC(=O)c2c[nH]c3ccccc3c2=O)c1 [Compound 328, N-(3-acetylphenyl)-4-oxo-1H-quinoline-3-carboxamide]"
17,25 to 100,"COc1nc2ccccc2c(OC)c1C(=O)Nc1cc(NC(=O)OC(C)(C)C)ccc1C(C)(C)C [Compound 39, [3-[(2,4-dimethoxy-3-quinolyl)carbonylamino]-4-tert-butyl-phenyl]aminoformic acid tert-butyl ester]"
18,25 to 100,"O=C(Nc1ccccc1-c1nc(-c2ccc(Cl)cc2)no1)c1c[nH]c2ccccc2c1=O [Compound 102, N-[2-[3-(4-chlorophenyl)-1,2,4-oxadiazol-5-yl]phenyl]-4-oxo-1H-quinoline-3-carboxamide]"
